Six compounds from ChEMBL document CHEMBL5506061, “Chb-M', an Inhibitor of the RUNX Family Binding to DNA, Induces Apoptosis in p53-Mutated Non-Small Cell Lung Cancer and Inhibits Tumor Growth and Repopulation In Vivo” (J Med Chem, 2024) can be followed below.

Active and inactive are the calls of the source. The calls are words filed in the database; no cut-off is given here.

The subject of data set [1] is NCI-H2228-Luc. The experiment in a line: In vivo antitumor activity against human NCI-H2228-Luc cells xenografted in CB17.Cg.Prkdc-scid Lystbg-j/CrlCrlj mouse assessed as reduction in tumor volume at 25 mg/kg, po administered every day (35 administration in total). The following applies: time 35.0 day. It counts as functional, organism-based.
Data set [2] relates to NCI-H2228-Luc. The experiment in a line: In vivo antitumor activity against human NCI-H2228-Luc cells xenografted in CB17.Cg.Prkdc-scid Lystbg-j/CrlCrlj mouse assessed as prolonged reduction in tumor volume (cancer free) at 25 mg/kg, po administered every day (35 administration in total) measured after 15 days of last dose. It is filed as functional, organism-based. The following applies: time 50.0 day. For orientation: In xenograft studies the graft and the host belong to different species.

For data set [3], the system named is NCI-H2228-Luc. The experiment in a line: In vivo antitumor activity against human NCI-H2228-Luc cells xenografted in CB17.Cg.Prkdc-scid Lystbg-j/CrlCrlj mouse assessed as prolonged reduction in tumor volume at 25 mg/kg, po administered every day (35 administration in total) measured after 70 days of last dose. It is filed as functional, organism-based. The following applies: time 70.0 day.

The subject of data set [4] is NCI-H2228-Luc. The data set is described as follows: Anticancer activity against p53-mutated human NCI-H2228-Luc cells assessed as cell viability at 0.3 to 3 uM incubated for 72 hrs by SF - cell counting reagent based colorimetric assay. It is filed as functional. The following applies: dose 0.3-3 µM.
For the next data set, the system named is BJ. The data set is described as follows: Cytotoxicity against human BJ cells assessed as cell viability at 0.3 to 3 uM incubated for 72 hrs by SF - cell counting reagent based colorimetric assay. It is filed as toxicity. Conditions: dose 0.3-3 µM.
Data set [5] deals with NCI-H2228-Luc. The experiment in a line: Anticancer activity against p53-mutated human NCI-H2228-Luc cells assessed as cell viability incubated for 72 hrs by SF - cell counting reagent based colorimetric assay. It counts as functional. The following applies: dose 0.3-3 µM.
For data set [6], the system named is NCI-H2228-Luc. The experiment in a line: Induction of apoptosis in p53-mutated human NCI-H2228-Luc cells assessed as early apoptotic cells at 0.3 to 3 uM incubated for 72 hrs by Annexin V-FITC and propidium iodide (PI) staining based flow cytometric analysis. It is filed as functional, cell-based. Conditions: dose 0.3-3 µM. (In general: In flow cytometry, cells or beads pass a laser one at a time.)

For data set [7], the system named is NCI-H2228-Luc. The data set is described as follows: Induction of apoptosis in p53-mutated human NCI-H2228-Luc cells assessed as late apoptotic cells at 0.3 to 3 uM incubated for 72 hrs by Annexin V-FITC and propidium iodide (PI) staining based flow cytometric analysis. It is filed as functional, cell-based. Conditions: dose 0.3-3 µM.
The test system of data set [8] is NCI-H2228-Luc. The data set is described as follows: Induction of apoptosis in p53-mutated human NCI-H2228-Luc cells assessed as decrease in BCL11A mRNA expression at 0.3 to 1 uM incubated for 24 hrs by RT-qPCR analysis. It is filed as functional, cell-based. The following applies: dose 0.3-1 µM. On the technique in general: Quantitative PCR measures a nucleic acid by following its amplification.

In data set [9] the test system is NCI-H2228-Luc. The data set is described as follows: Induction of apoptosis in p53-mutated human NCI-H2228-Luc cells assessed as increase in TAp73 mRNA expression incubated for 24 hrs by RT-qPCR analysis. It counts as functional, cell-based.
Data set [10] relates to NCI-H2228-Luc. The data set is described as follows: Induction of RUNX1 mRNA level in human NCI-H2228-Luc cells at 0.3 to 3 uM incubated for 24 hrs by RT-qPCR analysis. It is filed as functional, cell-based. The following applies: dose 0.3-3 µM.
For data set [11], the system named is NCI-H2228-Luc. The data set is described as follows: Induction of RUNX2 mRNA level in human NCI-H2228-Luc cells at 0.3 to 3 uM incubated for 24 hrs by RT-qPCR analysis. The following applies: dose 0.3-3 µM. It is filed as functional, cell-based.
In data set [12] the test system is NCI-H2228-Luc. The experiment in a line: Induction of RUNX3 mRNA level in human NCI-H2228-Luc cells at 0.3 to 3 uM incubated for 24 hrs by RT-qPCR analysis. It is filed as functional, cell-based. The following applies: dose 0.3-3 µM.
Data set [13] deals with NCI-H2228-Luc. The experiment in a line: In vivo antitumor activity against human NCI-H2228-Luc cells xenografted in CB17.Cg.Prkdc-scid Lystbg-j/CrlCrlj mouse assessed as reduction in tumor volume at 5 mg/kg, iv (tail vein) administered twice a week (10 injections in total) measured after 3 days. It is filed as functional, organism-based. Conditions: time 38.0 day.
Data set [14] is described as follows: Toxicity in CB17.Cg.Prkdc-scid Lystbg-j/CrlCrlj mouse xenografted with human NCI-H2228-Luc cells assessed as change in body weight at 5 mg/kg, iv (tail vein) administered twice a week (10 injections in total) measured after 3 days. It is filed as organism-based. Conditions: in vivo, 912 h, time 38 day.
Data set [15] concerns NCI-H2228-Luc. The experiment in a line: In vivo antitumor activity against human NCI-H2228-Luc cells xenografted in CB17.Cg.Prkdc-scid Lystbg-j/CrlCrlj mouse assessed as prolonged reduction in tumor volume at 5 mg/kg, iv (tail vein) administered twice a week (10 injections in total) measured after 35 days of last dose relative to alectinib and ceritinib. It counts as functional, organism-based. Conditions: time 70.0 day.

Data set [16] in a line: Hematological toxicity in CB17.Cg.Prkdc-scid Lystbg-j/CrlCrlj mouse xenografted with human NCI-H2228-Luc cells assessed as decrease in platelets at 10 mg/kg, iv (tail vein) administered twice a week (10 injections in total) measured after 3 days. It is filed as organism-based. Conditions: in vivo, 912 h, time 38 day.
Data set [17] is described as follows: Hematological toxicity in wild type mouse C-kit positive fraction of bone marrow cells assessed as decrease in colony forming capacity at 10 uM. It counts as cell-based. Conditions: bone marrow cell.
A short description of data set [18]: Hematological toxicity in CB17.Cg.Prkdc-scid Lystbg-j/CrlCrlj mouse xenografted with human NCI-H2228-Luc cells assessed as change in peripheral blood cell count at 320 microg/kg, iv for 3 months. It is filed as organism-based. The following applies: in vivo, 0.32 mg/kg, 2190 h, dose 320 µg/kg.
Data set [19] concerns NCI-H2228-Luc. The data set is described as follows: In vivo antitumor activity against human NCI-H2228-Luc cells xenografted in CB17.Cg.Prkdc-scid Lystbg-j/CrlCrlj mouse assessed as prolonged reduction in tumor volume (cancer free) at 25 mg/kg, po administered every day (35 administration in total) measured after 8 days of last dose. It counts as functional, organism-based. The following applies: time 43.0 day.

The test system of data set [20] is NCI-H2228-Luc. The experiment in a line: In vivo antitumor activity against human NCI-H2228-Luc cells xenografted in CB17.Cg.Prkdc-scid Lystbg-j/CrlCrlj mouse assessed as prolonged reduction in tumor volume at 25 mg/kg, po administered every day (35 administration in total) measured after 77 days of last dose. It is filed as functional, organism-based. The following applies: time 77.0 day.

Turning to `Cc1cc(Nc2ncc(Cl)c(Nc3ccccc3S(=O)(=O)C(C)C)n2)c(OC(C)C)cc1C1CCNCC1`, the outcome in the data set on NCI-H2228-Luc [1] and in the data set on NCI-H2228-Luc [2] was Active. In addition, in the data set on NCI-H2228-Luc [3], the outcome was inactive.

As for `CN(C)CCCNC(=O)c1cc(NC(=O)c2cc(NC(=O)c3cc(NC(=O)c4cc(NC(=O)CCCNC(=O)c5nc(NC(=O)c6nc(NC(=O)c7cc(NC(=O)c8nc(NC(=O)CCNC(=O)CCCc9ccc(N(CCO)CCO)cc9)cn8C)cn7C)cn6C)cn5C)cn4C)cn3C)cn2C)cn1C`, the outcome in the data set with NCI-H2228-Luc [4] was inactive. The Activity result in the data set with BJ is “Non-Toxic”.

Take `CN(C)CCCNC(=O)c1cc(NC(=O)c2cc(NC(=O)c3cc(NC(=O)c4cc(NC(=O)CCCNC(=O)c5nc(NC(=O)c6nc(NC(=O)c7cc(NC(=O)c8nc(NC(=O)CCNC(=O)CCCc9ccc(N(CCCl)CCCl)cc9)cn8C)cn7C)cn6C)cn5C)cn4C)cn3C)cn2C)cn1C`: the Activity entry in the data set with NCI-H2228-Luc [5] was “Dose-Dependent Effect”; in the data set on BJ it was “Non-Toxic”; in the data set on NCI-H2228-Luc [9] it was “Dose-Dependent Effect”; in data set [14], “Non-Toxic”; in data set [16], “Non-Toxic”; in data set [17], “Non-Toxic”. For the same compound, the Activity result in data set [18] is reported as “Non-Toxic”. Besides, the outcome in the data set on NCI-H2228-Luc [6], in the data set with NCI-H2228-Luc [7], in the data set on NCI-H2228-Luc [8], in the data set with NCI-H2228-Luc [10], in the data set with NCI-H2228-Luc [11] and in the data set on NCI-H2228-Luc [12] was Active. For the same compound, the result in the data set on NCI-H2228-Luc [13] and in the data set on NCI-H2228-Luc [15] was Active.

Consider `CN(C)CCCNC(=O)c1cc(NC(=O)c2cc(NC(=O)c3nc(NC(=O)c4nc(NC(=O)CCCNC(=O)c5cc(NC(=O)c6cc(NC(=O)c7nc(NC(=O)c8nc(NC(=O)CCNC(=O)CCCc9ccc(N(CCCl)CCCl)cc9)cn8C)cn7C)cn6C)cn5C)cn4C)cn3C)cn2C)cn1C`, for which, in the data set with NCI-H2228-Luc [4], the result was inactive. In the data set on BJ, the Activity entry was “Non-Toxic”.

`O=C(O)CCCc1ccc(N(CCCl)CCCl)cc1` [CHLORAMBUCIL]: the outcome in the data set with NCI-H2228-Luc [4] was inactive. The Activity result in the data set on BJ is “Non-Toxic”.

On to `CCc1cc2c(cc1N1CCC(N3CCOCC3)CC1)C(C)(C)c1[nH]c3cc(C#N)ccc3c1C2=O`, for which the outcome with NCI-H2228-Luc [1] and with NCI-H2228-Luc [19] was Active. Besides, in the data set on NCI-H2228-Luc [20], the outcome was inactive.
